From patent publication US12304917B1, “Pleuromutilin derivative containing a thiazolo[5,4-c]pyridine side chain, and a preparation method and application thereof” (SHAANXI UNIVERSITY OF SCIENCE AND TECHNOLOGY, priority 2024, dated 2025)
Converted amounts (≈) assume the structure as drawn. Read-outs that look alike come from different tables or passages of the source.

How the values were obtained:
[1] = tested on: Methicillin-resistant S. aureus ATCC 33591; assay: MIC by broth microdilution; details: Staphylococcus aureus, ATCC33591|MRSA, 24 h, read-out: Minimum inhibitory concentration MRSA^b
[2] = tested on: vancomycin-resistant Enterococcus-80; assay: MIC against clinical isolate; assay type: cell-based
Source text: (§1) The Specific Steps are as Follows:

[3] = tested on: methicillin-resistant Staphylococcus aureus-222; assay: MIC against clinical isolate; assay type: cell-based; details: MRSA / MRSE
Source text: as §1

[4] = tested on: methicillin-resistant Staphylococcus aureus-171; assay: MIC against clinical isolate; assay type: cell-based
Source text: as §1

[5] = tested on: multidrug-resistant Pseudomonas aeruginosa-126; assay: MIC against clinical isolate; assay type: cell-based
Source text: as §1

[6] = tested on: carbapenem-resistant Acinetobacter baumannii-882; assay: MIC against clinical isolate; assay type: cell-based
Source text: as §1

[7] = tested on: methicillin-resistant Staphylococcus aureus-575; assay: MIC against clinical isolate; assay type: cell-based
Source text: as §1

[8] = tested on: multidrug-resistant Klebsiella pneumoniae-893; assay: MIC against clinical isolate; assay type: cell-based; details: clinical isolate MDR-KP-893
Source text: as §1

[9] = tested on: methicillin-resistant Staphylococcus aureus-596; assay: MIC against clinical isolate; assay type: cell-based
Source text: as §1

[10] = tested on: methicillin-resistant Staphylococcus aureus-206; assay: MIC against clinical isolate; assay type: cell-based
Source text: as §1

A. baumannii ATCC 19606 = assay: MIC by broth microdilution; details: Acinetobacter baumannii, ATCC19606, 24 h, read-out: Minimum inhibitory concentration A.b.^f
physchem = details: thermodynamic from solid
[11] = Cell Counting Kit-8 cytotoxicity; details: human, HepG2 cells
HEK293 cells [12] = assay: Cell Counting Kit-8 cytotoxicity; details: read-out: CC50 HEK293 Cells; CCK-8, 24 hours incubation
E. coli CMCC 44103 = assay: MIC by broth microdilution; details: Escherichia coli, CMCC44103, 24 h, read-out: Minimum inhibitory concentration E.c.^i
A549 cells [13] = assay: Cell Counting Kit-8 cytotoxicity; details: read-out: CC50 A549 Cells; CCK-8, 24 hours incubation
S. aureus ATCC 29213 = assay: MIC by broth microdilution; details: Staphylococcus aureus, ATCC29213, 24 h, read-out: Minimum inhibitory concentration S.a.^d
[14] = tested on: Methicillin-resistant S. epidermidis ATCC 51625; assay: MIC by broth microdilution; details: Staphylococcus epidermidis, ATCC51625|MRSE, 24 h, read-out: Minimum inhibitory concentration MRSE^e
[15] = tested on: five clinical MRSA isolates, including MRSA-171, MRSA-575, MRSA-206, MRSA-222, and MRSA-596; assay: MIC, five clinical MRSA isolates as summarised in text; assay type: cell-based, Staphylococcus aureus; details: MRSA-171, MRSA-575, MRSA-206, MRSA-222, MRSA-596
Source text: as §1

[16] = tested on: Gram-positive and Gram-negative bacteria; assay: MIC, panel of TABLE 1 strains as summarised in text; details: comparison of MIC with positive control drugs
S. enterica ATCC14028 = assay: MIC by broth microdilution; details: Salmonella enterica, ATCC14028, 24 h, read-out: Minimum inhibitory concentration S.e.^g
E. coli ATCC 25922 = assay: MIC by broth microdilution; details: Escherichia coli, ATCC25922, 24 h, read-out: Minimum inhibitory concentration E.c.^h
[17] = tested on: HepG2 cells, HEK293 cells and A549 cells; assay: Cell Counting Kit-8 cytotoxicity, all tested cells as summarised in text; details: at a concentration of 100 μM
[18] = tested on: Methicillin-resistant S. aureus ATCC 43300; assay: MIC by broth microdilution; details: Staphylococcus aureus, ATCC43300|MRSA, 24 h, read-out: Minimum inhibitory concentration MRSA^c
[19] = Solubility experiment (equilibrium solubility); details: thermodynamic from solid
HepG2 cells [20] = assay: Cell Counting Kit-8 cytotoxicity; details: read-out: CC50 HepG2 Cells; CCK-8, 24 hours incubation
[21] = Cell Counting Kit-8 cytotoxicity; details: human
A549 cells [22] = details: human, 24 h
HEK293 cells [23] = details: human, 24 h
HepG2 cells [24] = details: human, 24 h

Row | SMILES | MIC [1] [mg/L] | Antibacterial activity (MIC) MDR-KP^i [8] [mg/L] | MIC (A. baumannii ATCC 19606) [mg/L] | solubility (physchem) [µM] | MIC (E. coli CMCC 44103) [mg/L] | CC50 (A549 cells [13]) [µM] | MIC (S. aureus ATCC 29213) [mg/L] | MIC [14] [mg/L] | antibacterial activity compared to valnemulin and retapamulin (in words) [16] | MIC (S. enterica ATCC14028) [mg/L] | MIC (E. coli ATCC 25922) [mg/L] | toxicity to the tested cells (in words) [17] | MIC [18] [mg/L] | further results
1 | C=C[C@]1(C)C[C@@H](OC(=O)CSc2nc3cc[n+](Cc4ccc(C)cc4)cc3s2)[C@]2(C)[C@H](C)CC[C@]3(CCC(=O)[C@H]32)[C@@H](C)[C@@H]1O [Compound I-9, 5-(4-methylbenzyl)-2-((2-(((3aR,4R,5R,7S,8S,9R,9aS,12R)-8-hydroxy-4,7,9,12-tetramethyl-3-oxo-7-vinyldecahydro-4,9a-propancyclopenta[8]cyclo-5-yl)oxy)-2-oxoethyl)thio)thiazolo[5,4-c]pyridin-5-ium] | 0.25 | 2 | 0.5 | 812 | 0.125 | > 100 | 0.125 | 0.25 | most advantageous antibacterial activity | 0.25 | 0.25 | low toxicity | 0.25 | MIC ([2]; clinical isolate VRE-80, read-out: Antibacterial activity (MIC) VRE^g): 8 mg/L; MIC ([3]; clinical isolate, footnote e: MRSA-222, read-out: Antibacterial activity (MIC) MRSE^e): 4 mg/L; MIC ([4]; clinical isolate MRSA-171, read-out: Antibacterial activity (MIC) MRSA^b): 8 mg/L; MIC ([5]; clinical isolate MDR-PA-126, read-out: Antibacterial activity (MIC) MDR-PA^h): 8 mg/L; MIC ([6]; clinical isolate CR-AB-882, read-out: Antibacterial activity (MIC) CR-AB^j): 4 mg/L; MIC ([7]; clinical isolate MRSA-575, read-out: Antibacterial activity (MIC) MRSA^c): 4 mg/L; MIC ([9]; clinical isolate MRSA-596, read-out: Antibacterial activity (MIC) MRSA^f): 8 mg/L; MIC ([10]; clinical isolate MRSA-206, read-out: Antibacterial activity (MIC) MRSA^d): 2 mg/L; CC50 at 24 h [11]: 66.4 µM; CC50 (HEK293 cells [12]): 82.1 µM; MIC, range over five clinical MRSA isolates [15]: 2 to 8 mg/L
2 | C=C[C@]1(C)C[C@@H](OC(=O)CSc2nc3cc[n+](Cc4ccc([N+](=O)[O-])cc4)cc3s2)[C@]2(C)[C@H](C)CC[C@]3(CCC(=O)[C@H]32)[C@@H](C)[C@@H]1O [Compound I-6, 5-(4-nitrobenzyl)-2-((2-(((3aR,4R,5R,7S,8S,9R,9aS,12R)-8-hydroxy-4,7,9,12-tetramethyl-3-oxo-7-vinyldecahydro-4,9a-propancyclopenta[8]cyclo-5-yl)oxy)-2-oxoethyl)thio)thiazolo[5,4-c]pyridin-5-ium] | 16 | – | 16 | – | 32 | – | 32 | 16 | – | 16 | 8 | – | 4 | solubility [19]: 887 µM
3 | C=C[C@]1(C)C[C@@H](OC(=O)CSc2nc3cc[n+](Cc4ccc(C#N)cc4)cc3s2)[C@]2(C)[C@H](C)CC[C@]3(CCC(=O)[C@H]32)[C@@H](C)[C@@H]1O [Compound I-8, 5-(4-cyanobenzyl)-2-((2-(((3aR,4R,5R,7S,8S,9R,9aS,12R)-8-hydroxy-4,7,9,12-tetramethyl-3-oxo-7-vinyldecahydro-4,9a-propancyclopenta[8]cyclo-5-yl)oxy)-2-oxoethyl)thio)thiazolo[5,4-c]pyridin-5-ium] | 1 | 16 | 1 | – | 2 | > 100 | 0.5 | 2 | good antibacterial activity | 2 | 1 | low toxicity | 1 | MIC ([2]; VRE, read-out: Antibacterial activity (MIC) VRE^g): 16 mg/L; MIC ([3]; read-out: Antibacterial activity (MIC) MRSE^e): 16 mg/L; MIC ([4]; MRSA, read-out: Antibacterial activity (MIC) MRSA^b): 16 mg/L; MIC ([5]; read-out: Antibacterial activity (MIC) MDR-PA^h): 32 mg/L; MIC ([6]; read-out: Antibacterial activity (MIC) CR-AB^j): 64 mg/L; MIC ([7]; MRSA, read-out: Antibacterial activity (MIC) MRSA^c): 32 mg/L; MIC ([9]; MRSA, read-out: Antibacterial activity (MIC) MRSA^f): 8 mg/L; MIC ([10]; MRSA, read-out: Antibacterial activity (MIC) MRSA^d): 64 mg/L; CC50 (HepG2 cells [20]): 78.5 µM; CC50 at 24 h [21]: 79.2 µM
4 | C=C[C@]1(C)C[C@@H](OC(=O)CSC(C)(C)CNC(=O)[C@H](N)C(C)C)[C@]2(C)[C@H](C)CC[C@]3(CCC(=O)[C@H]32)[C@@H](C)[C@@H]1O [Valnemulin, valnemulin, reference compound] | – | – | 2 (≈ 3.54 µM) | 386 (≈ 218 µg/mL) | 64 (≈ 113 µM) | – | 4 (≈ 7.08 µM) | – | – | 64 (≈ 113 µM) | 16 (≈ 28.3 µM) | – | – | CC50 (A549 cells [22]): 53.7 µM; CC50 (HEK293 cells [23]): 65.4 µM; CC50 (HepG2 cells [24]): 77.3 µM
